# Measurements published in patent US11186587B2, “Compound as ACC inhibitor and use thereof” (NANJING SANHOME PHARMACEUTICAL CO., LTD., priority 2017, dated 2021).
# Test system: HFD-CCL4 induced NASH model
# Experiment: Drug efficacy on NASH and liver fibrosis induced by HFD-CCL4
# Type: in vivo
# Conditions: C57BL/6 mice, HFD 10 weeks + CCL4 4 weeks; intragastric once a day for 4 weeks; Example 25 10 mg/kg/d, ND-630 30 mg/kg/d; H&E staining
# Description: High-fat diet (HFD) was used to induce liver steatosis in animals, and then carbon tetrachloride (CCL4) was used to induce liver inflammation, necrosis, and liver fibrosis. This model was similar to the human NASH disease process and pathological phenomenon. The purpose of this experiment was to evaluate the efficacy of the compound of the disclosure in a NASH model of C57BL/6 mice induced by HFD-CCL4, with ND-630 as a control compound. HFD-CCL4 inducement was performed for 10 weeks and drug intervention was performed for 4 weeks. The therapeutic effects of the drug on NASH and liver fibrosis were observed.
# The test compounds in the examples of the present disclosure and ND-630 were diluted to 0.3 mg/mL, 1 mg/mL, 3 mg/mL with PEG200:0.2M Na2HPO4-NaH2PO4 buffer (35:65), which was prepared just before use.
# HFD-CCL4 induced NASH model in C57BL/6 mice: the animals were first housed in the SPF barrier of the KCI Experimental Animal Center for 3-7 days, and then the animals were changed to HFD feeding in a cycle of 10 weeks. […]
# The left liver lobe sample was fixed with 10% formalin and embedded in paraffin to prepare 5 μm sections for haematoxylin-eosin (H&E) staining. Hematoxylin-eosin staining can detect tissue inflammation, fat deposition, vacuolar degeneration and tissue fibrosis, giving semi-quantitative analysis for the lesion.
# The data were expressed as mean±standard error. […]
smiles,measurement,value
"COc1ccccc1[C@H](Cn1c(=O)n(C(C)(C)C(=O)O)c(=O)c2c(C)c(-c3ncco3)sc21)OC1CCOCC1 [ND-630, 2-[1-[2-(2-methoxyphenyl)-2-(oxecyclo-4-yloxy)ethyl]-5-methyl-6-(1,3-oxazol-2-yl)-2,4-dioxo-1H,2H,3H,4H-thieno[2,3-d]pyrimidin-3-yl]-2-methylpropanoic acid, reference compound]",Hepatic steatosis score (Mean ± SD),0.13 ± 0.32
same,Hepatocyte necrosis score (Mean ± SD),1.00 ± 0.61
